Assay results as given in PMC8286840, “Identifying SARS-CoV-2 antiviral compounds by screening for small molecule inhibitors of Nsp3 papain-like protease” (Biochemical Journal, 2021).
Counter-ions that a name gives are not always drawn. Like-named read-outs stand apart in the source and are kept apart here.

Legend:
[1] = target: T1, SARS-CoV-2 PLpro (nsp3 1564–1878) (Severe acute respiratory syndrome coronavirus 2, UniProt P0DTD1); test: biochemical; design: FRET-quenched peptide (Pro3) cleavage by PLpro, 10 min pre-incubation, slope over 20 min, normalised to no-compound control; details: low concentration screen, read-out: % of control remaining
[2] = target: T1, SARS-CoV-2 PLpro (nsp3 1564–1878); test: biochemical; design: FRET-quenched peptide (Pro3) cleavage by PLpro, 10 min pre-incubation, slope over 20 min, normalised to no-compound control; details: high concentration screen, read-out: % of control remaining

C[N+]1(C)[C@@H]2C[C@@H](OC(=O)C(O)(c3cccs3)c3cccs3)C[C@H]1[C@@H]1O[C@@H]12 [Tiotropium Bromide hydrate]
remaining activity at 1.25 µM ([1]; Well no.=4912): 100% | remaining activity at 3.75 µM ([2]; Well no.=4912): 95.8%

C[N+]1(C)[C@@H]2C[C@@H](OC(=O)C(O)(c3cccs3)c3cccs3)C[C@H]1[C@@H]1O[C@@H]12 [Tiotropium Bromide]
remaining activity at 1.25 µM ([1]; Well no.=2108): 102% | remaining activity at 3.75 µM ([2]; Well no.=2108): 102%

O=c1oc2cc(O)ccc2s1 [Tioxolone]
remaining activity at 1.25 µM ([1]; Well no.=4952): 95.3% | remaining activity at 3.75 µM ([2]; Well no.=4952): 91.8%

N=C1CCCN1Cc1[nH]c(=O)[nH]c(=O)c1Cl [Tipiracil hydrochloride]
remaining activity at 1.25 µM ([1]; Well no.=8154): 95.9% | remaining activity at 3.75 µM ([2]; Well no.=8154): 95.8%

O=C(O)C(=O)c1cn(Cc2ccccc2)c2ccc(-c3ccc(OC(F)(F)F)cc3)cc12 [Tiplaxtinin]
remaining activity at 1.25 µM ([1]; Well no.=5648): 92.2% | remaining activity at 3.75 µM ([2]; Well no.=5648): 93.4%

CCCCS(=O)(=O)N[C@@H](Cc1ccc(OCCCCC2CCNCC2)cc1)C(=O)O [Tirofiban hydrochloride monohydrate]
remaining activity at 1.25 µM ([1]; Well no.=5469): 95.9% | remaining activity at 3.75 µM ([2]; Well no.=5469): 99.6%

COc1cc2nccc(Oc3ccc(NC(=O)Nc4cc(C)on4)c(Cl)c3)c2cc1OC [Tivozanib]
remaining activity at 1.25 µM ([1]; Well no.=2932): 96.1% | remaining activity at 3.75 µM ([2]; Well no.=2932): 99%

Clc1ccc2nsnc2c1NC1=NCCN1 [Tizanidine (hydrochloride)]
remaining activity at 1.25 µM ([1]; Well no.=6612): 105% | remaining activity at 3.75 µM ([2]; Well no.=6612): 96%

Clc1ccc2nsnc2c1NC1=NCCN1 [Tizanidine HCl]
remaining activity at 1.25 µM ([1]; Well no.=4851): 101% | remaining activity at 3.75 µM ([2]; Well no.=4851): 99.7%

Clc1ccc2nsnc2c1NC1=NCCN1 [Tizanidine.HCl]
remaining activity at 1.25 µM ([1]; Well no.=1563): 98.4% | remaining activity at 3.75 µM ([2]; Well no.=1563): 98%

NC[C@H]1O[C@H](O[C@H]2[C@H](O)[C@@H](O[C@H]3O[C@H](CO)[C@@H](O)[C@H](N)[C@H]3O)[C@H](N)C[C@@H]2N)[C@H](N)C[C@@H]1O [Tobramycin (free base)]
remaining activity at 1.25 µM ([1]; Well no.=1960): 96.2% | remaining activity at 3.75 µM ([2]; Well no.=1960): 95.9%

C[C@@H]1CCN(C(=O)CC#N)C[C@@H]1N(C)c1ncnc2[nH]ccc12 [Tofacitinib citrate]
remaining activity at 1.25 µM ([1]; Well no.=5551): 98.9% | remaining activity at 3.75 µM ([2]; Well no.=5551): 109%

CCC1C(C)=NN=C(c2ccc(OC)c(OC)c2)c2cc(OC)c(OC)cc21 (centres unmarked) [Tofisopam]
remaining activity at 1.25 µM ([1]; Well no.=5780): 103% | remaining activity at 3.75 µM ([2]; Well no.=5780): 103%

CCc1ccc(Cc2ccc3c(c2)[C@]2(OC3)O[C@H](CO)[C@@H](O)[C@H](O)[C@H]2O)cc1 [Tofogliflozin(CSG 452)]
remaining activity at 1.25 µM ([1]; Well no.=8776): 101% | remaining activity at 3.75 µM ([2]; Well no.=8776): 102%

Cc1ccc(S(=O)(=O)NC(=O)NN2CCCCCC2)cc1 [Tolazamide]
remaining activity at 1.25 µM ([1]; Well no.=1523): 93.9% | remaining activity at 1.25 µM ([1]; Well no.=1810): 100% | remaining activity at 3.75 µM ([2]; Well no.=1523): 94.7% | remaining activity at 3.75 µM ([2]; Well no.=1810): 93.8%

c1ccc(CC2=NCCN2)cc1 [Tolazoline (hydrochloride)]
remaining activity at 1.25 µM ([1]; Well no.=6231): 104% | remaining activity at 3.75 µM ([2]; Well no.=6231): 107%

CCCCNC(=O)NS(=O)(=O)c1ccc(C)cc1 [Tolbutamide]
remaining activity at 1.25 µM ([1]; Well no.=1329): 107% | remaining activity at 1.25 µM ([1]; Well no.=1601): 99.7% | remaining activity at 3.75 µM ([2]; Well no.=1329): 104% | remaining activity at 3.75 µM ([2]; Well no.=1601): 97.6%

Cc1ccc(C(=O)c2cc(O)c(O)c([N+](=O)[O-])c2)cc1 [Tolcapone]
remaining activity at 1.25 µM ([1]; Well no.=1790): 97.4% | remaining activity at 3.75 µM ([2]; Well no.=1790): 96%

Cc1c(Cl)cccc1Nc1ccccc1C(=O)O [Tolfenamic acid]
remaining activity at 1.25 µM ([1]; Well no.=1996): 97.1% | remaining activity at 3.75 µM ([2]; Well no.=1996): 99.1%

CCOC(=O)C1=Cc2ccc(C(F)(F)C(F)(F)F)cc2N=C(N)C1 [Toll-like receptor modulator]
remaining activity at 1.25 µM ([1]; Well no.=8077): 108% | remaining activity at 3.75 µM ([2]; Well no.=8077): 95.6%

Cc1ccc(C(=O)c2ccc(CC(=O)O)n2C)cc1 [Tolmetin]
remaining activity at 1.25 µM ([1]; Well no.=1998): 101% | remaining activity at 3.75 µM ([2]; Well no.=1998): 101%

Cc1cccc(N(C)C(=S)Oc2ccc3ccccc3c2)c1 [Tolnaftate]
remaining activity at 1.25 µM ([1]; Well no.=4720): 105% | remaining activity at 3.75 µM ([2]; Well no.=4720): 106%

Cc1ccc(C(=O)C(C)CN2CCCCC2)cc1 (centres unmarked) [Tolperisone (hydrochloride)]
remaining activity at 1.25 µM ([1]; Well no.=7498): 99% | remaining activity at 3.75 µM ([2]; Well no.=7498): 100%

Cc1ccc(O)c([C@H](CCN(C(C)C)C(C)C)c2ccccc2)c1 [Tolterodine tartrate (Detrol LA)]
remaining activity at 1.25 µM ([1]; Well no.=4918): 98% | remaining activity at 3.75 µM ([2]; Well no.=4918): 94.6%

Cc1cc(-n2c(=O)[nH]c(=O)n(C)c2=O)ccc1Oc1ccc(SC(F)(F)F)cc1 [Toltrazuril]
remaining activity at 1.25 µM ([1]; Well no.=4692): 110% | remaining activity at 3.75 µM ([2]; Well no.=4692): 102%

Cc1ccccc1C(=O)Nc1ccc(C(=O)N2CCCC(O)c3cc(Cl)ccc32)c(C)c1 (centres unmarked) [Tolvaptan]
remaining activity at 1.25 µM ([1]; Well no.=7517): 102% | remaining activity at 1.25 µM ([1]; Well no.=8388): 97.7% | remaining activity at 3.75 µM ([2]; Well no.=7517): 95.6% | remaining activity at 3.75 µM ([2]; Well no.=8388): 97.5%

C[C@H]1CC[C@]2(NC1)O[C@H]1C[C@H]3[C@@H]4CC[C@H]5C[C@@H](O)CC[C@]5(C)[C@H]4CC[C@]3(C)[C@H]1[C@@H]2C [Tomatidine]
remaining activity at 1.25 µM ([1]; Well no.=3186): 94.5% | remaining activity at 3.75 µM ([2]; Well no.=3186): 99.4%

CNCC[C@@H](Oc1ccccc1C)c1ccccc1 [Tomoxetine]
remaining activity at 1.25 µM ([1]; Well no.=1182): 99.4% | remaining activity at 3.75 µM ([2]; Well no.=1182): 95.7%

CC(=O)c1ccc2c(c1)[C@H](NC(=O)c1ccc(F)c(Cl)c1)[C@H](O)C(C)(C)O2 [Tonabersat]
remaining activity at 1.25 µM ([1]; Well no.=5960): 92.7% | remaining activity at 3.75 µM ([2]; Well no.=5960): 94.8%

CC1(C)O[C@@H]2[C@@H](CO[C@@]3(COS(N)(=O)=O)OC(C)(C)O[C@@H]23)O1 [Topiramate]
remaining activity at 1.25 µM ([1]; Well no.=4853): 101% | remaining activity at 1.25 µM ([1]; Well no.=7527): 102% | remaining activity at 3.75 µM ([2]; Well no.=4853): 104% | remaining activity at 3.75 µM ([2]; Well no.=7527): 100%

N#Cc1cc(-c2n[nH]c(-c3ccncc3)n2)ccn1 [Topiroxostat]
remaining activity at 1.25 µM ([1]; Well no.=8440): 96.2% | remaining activity at 3.75 µM ([2]; Well no.=8440): 97.1%

CC[C@@]1(O)C(=O)OCc2c1cc1n(c2=O)Cc2cc3c(CN(C)C)c(O)ccc3nc2-1 [Topotecan hydrochloride hydrate]
remaining activity at 1.25 µM ([1]; Well no.=6019): 103% | remaining activity at 3.75 µM ([2]; Well no.=6019): 99%

CC[C@@]1(O)C(=O)OCc2c1cc1n(c2=O)Cc2cc3c(CN(C)C)c(O)ccc3nc2-1 [Topotecan.HCl]
remaining activity at 1.25 µM ([1]; Well no.=1964): 98.5% | remaining activity at 3.75 µM ([2]; Well no.=1964): 97.5%
